Test results: patent US6215002A, “Pyrrolopyrrolone derivatives as inhibitors of neutrophil elastase” (priority 1996, dated 2001)
Where a name gives a salt, the structure may show the parent alone.

target: T1, human neutrophil elastase (Homo sapiens, UniProt P08246); assay: In vitro assay of human neutrophil elastase (HNE); format: biochemical; conditions: 118 nM purified human neutrophil elastase, pH 8.6, 15 min incubation at 30° C., MeO-succinyl-alanyl-alanyl-prolyl-valyl-p-nitroanilide substrate; read-out: HNE IC50
T1 sequence (P08246 30-267): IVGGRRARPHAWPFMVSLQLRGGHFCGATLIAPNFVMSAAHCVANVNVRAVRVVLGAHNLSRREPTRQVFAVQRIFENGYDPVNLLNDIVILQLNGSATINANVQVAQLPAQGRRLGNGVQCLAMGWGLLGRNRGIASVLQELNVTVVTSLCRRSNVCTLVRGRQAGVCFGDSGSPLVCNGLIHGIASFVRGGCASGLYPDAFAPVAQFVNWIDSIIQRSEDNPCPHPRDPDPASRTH
Method: In Vitro Assays of Human Neutrophil Elastase
118 nM purified human neutrophil elastase
Suitable concentrations of compound under test diluted with water from a 10 mM stock solution in dimethylsulphoxide. Values above are final concentrations after the addition of substrate solution (see below).
The mixture above is incubated for fifteen minutes at 30° C. at which time the remaining elastase activity is measured for 10 minutes in a BioTek 340i plate-reader, after the addition of 0.6 mM MeO-succinyl-alanyl-alanyl-prolyl-valyl-p-nitroanilide. The rate of increase in absorbance at 405 nm is proportional to elastase activity. Enzyme activity is plotted against concentration of inhibitor and an IC50 determined using curve fitting software.
1. The compounds were tested in the in vitro elastase test described earlier in the description.

Compound	IC50 [nM]
CCC[C@H]1C(=O)N(S(=O)(=O)c2ccccn2)[C@H]2CCN(C(=O)CCN3CCCCC3)[C@H]12 (relative stereo) [Example 171, rel-(3R,3aR,6aS)-4-(3-Piperidin-1-yl-propionyl)-3-propyl-1-(pyridine-2-sulfonyl)-hexahydro-pyrrolo[3,2-b]pyrrol-2-one hydrochloride]	39
CCC[C@H]1C(=O)N(S(C)(=O)=O)[C@H]2CCN(S(=O)(=O)c3ccccc3[N+](=O)[O-])[C@H]12 (relative stereo) [Example 226, rel-(3R,3aR,6aS)-1-Methanesulfonyl-4-(2-nitro-benzenesulfonyl)-3-propyl-hexahydro-pyrrolo[3,2-b]pyrrol-2-one]	87
CC[C@H]1C(=O)N(S(=O)(=O)c2ccc3ccccc3c2)[C@H]2CCN(C(=O)OCc3ccccc3)[C@H]12 (relative stereo) [Example 4, rel-(3aS,6R,6aR)-6-Ethyl-4-(naphthalene-2-sulfonyl)-5-oxo-hexahydro-pyrrolo[3,2-b]pyrrole-1-carboxylic acid benzyl ester]	134
CCC[C@H]1C(=O)N(S(C)(=O)=O)[C@H]2CCN(S(=O)(=O)Cc3cccc(-c4nnn[nH]4)c3)[C@H]12 (relative stereo) [Example 27, rel-(3R,3aR,6aS)-1-Methanesulfonyl-3-propyl-4-[3-(1H-tetrazol-5-yl)-phenylmethanesulfonyl]-hexahydro-pyrrolo[3,2-b]pyrrol-2-one]	55
CC(C)[C@H]1C(=O)N(S(C)(=O)=O)[C@H]2CCN(S(=O)(=O)c3ccc([N+](=O)[O-])cc3)[C@H]12 (relative stereo) [Example 229, rel-(3R,3aR,6aS)-3-Isopropyl-1-methanesulfonyl-4-(4-nitro-benzenesulfonyl)-hexahydro-pyrrolo[3,2-b]pyrrol-2-one]	167
C=CC[C@H]1C(=O)N(S(=O)(=O)c2ccc3c(c2)CCCC3)[C@H]2CCN(C(=O)OCc3ccccc3)[C@H]12 (relative stereo) [Example 20, rel-(3aS,6R,6aR)-6-Allyl-5-oxo-4-(5,6,7,8-tetrahydro-naphthalene-2-sulfonyl)-hexahydro-pyrrolo[3,2-b]pyrrole-1-carboxylic acid benzyl ester]	57
rel-(3aS,6R,6aR)-6-Allyl-4-benzylsulfamoyl-5-oxo-hexahydro-pyrrolo[3,2-b]pyrrole-1-carboxylic acid benzyl ester [Example 19]	5230
CC(C)[C@H]1C(=O)N(S(C)(=O)=O)[C@H]2CCN(C(=O)CCCC3CCN(C)CC3)[C@H]12 (relative stereo) [Example 256, rel-(3R,3aR,6aS)-3-Isopropyl-1-methanesulfonyl-4-[4-(1-methyl-piperidin-4-yl)-butyryl]-hexahydro-pyrrolo[3,2-b]pyrrol-2-one hydrochloride]	78
CCC[C@H]1C(=O)N(S(C)(=O)=O)[C@H]2CCN(C(=O)CCCCCN3CCCN(C)CC3)[C@H]12 (relative stereo) [Example 80, rel-(3R,3aR,6aS)-1-Methanesulfonyl-4-[6-(4-methyl-[1,4]diazepin-1-yl)-hexanoyl]-3-propyl-hexahydro-pyrrolo[3,2-b]pyrrol-2-one hydrochloride]	61
CCC[C@H]1C(=O)N(S(C)(=O)=O)[C@H]2CCN(S(=O)(=O)c3ccc(N4CCCC4=O)cc3)[C@H]12 (relative stereo) [Example 212, rel-(3R,3aR,6aS)-1-Methanesulfonyl-4-[4-(2-oxo-pyrrolidin-1yl)-benzenesufonyl]-3-propyl-hexahydro-pyrrolo[3,2-b]pyrrol-2-one]	30
CCC[C@H]1C(=O)N(S(C)(=O)=O)[C@H]2CCN(C(=O)c3ccncc3)[C@H]12 (relative stereo) [Example 246, rel-(3R,3aR,6aS)-1-Methanesulfonyl-3-propyl-4-(pyridine-4-carbonyl)-hexahydro-pyrrolo[3,2-b]pyrrol-2-one]	21
CCC[C@H]1C(=O)N(S(C)(=O)=O)[C@H]2CCN(C(=O)CCCN(C)C)[C@H]12 (relative stereo) [Example 85, rel-(3R,3aR,6aS)-4-(4-Dimethylamino-butyryl)-1-methanesulfonyl-3-propyl-hexahydro-pyrrolo[3,2-b]pyrrol-2-one DL-tartrate]	182
CCCCOc1ccc(S(=O)(=O)N2C(=O)[C@H](CCC)[C@@H]3[C@@H]2CCN3C(=O)CCCCCN2CCCCC2)cc1 (relative stereo) [Example 204, rel-(3R,3aR,6aS)-1-(4-Butoxy-benzenesulfonyl)-4-(6-piperidin-1-yl-hexanoyl)-3-propyl-hexahydro-pyrrolo[3,2-b]pyrrol-2-one DL-tartrate]	98

Further compounds by falling IC50, results first:

IC50 [nM]	Compound
650	CCC[C@H]1C(=O)N(S(C)(=O)=O)[C@H]2CCN(C(=O)CN3CCCCC3)[C@H]12 (relative stereo) [Example 100, rel-(3R,3aR,6aS)-1-Methanesulfonyl-4-(piperidin-1-yl-acetyl)-3-propyl-hexahydro-pyrrol[3,2-b]pyrrol-2-one hydrochloride]
491	C=CC[C@H]1C(=O)N(S(=O)(=O)Cc2ccccc2)[C@H]2CCN(C(=O)OCc3ccccc3)[C@H]12 (relative stereo) [Example 21, rel-3aS,6R,6aR)-6-Allyl-5-oxo-4-phenylmethanesylfonyl-hexahydro-pyrrolo[3,2-b]pyrrole-1-carboxylic acid benzyl ester]
305	CCC[C@H]1C(=O)N(S(C)(=O)=O)[C@H]2CCN(C(=O)CCN(C)C)[C@H]12 (relative stereo) [Example 90, rel-(3R,3aR,6aS)-4-(3-Dimethylamino-propionyl)-1-methanesulfonyl-3-propyl-hexahydro-pyrrolo[3,2-b]pyrrol-2-one hydrochloride]
202	CCC[C@H]1C(=O)N(S(C)(=O)=O)[C@H]2CCN(C(=O)CCN3CCC3)[C@H]12 (relative stereo) [Example 97, rel-(3R,3aR,6aS)-4-(3-Azetidin-1-yl-propionyl)-1-methanesulfonyl-3-propyl-hexahydro-pyrrolo[3,2-b]pyrrol-2-one hydrochloride]
189	CCC[C@H]1C(=O)N(S(C)(=O)=O)[C@H]2CCN(C(=O)CCN3CCCCC3)[C@H]12 (relative stereo) [Example 30, rel-(3R,3aR,6aS)-1-Methanesulfonyl-4-(3-piperidin-1-yl-propionyl)-3-propyl-hexahydro-pyrrolo[3,2-b]pyrrol-2-one hydrochloride]
162	CCC[C@H]1C(=O)N(S(C)(=O)=O)[C@H]2CCN(C(=O)CCCN3CCN(C)CC3)[C@H]12 (relative stereo) [Example 82, rel-(3R,3aR,6aS)-1-Methanesulfonyl-4-[4-(4-methyl-piperazin-1-yl)-butyryl]-3-propyl-hexahydro-pyrrolo[3,2-b]pyrrol-2-one dihydrochloride]
120	CCC[C@H]1C(=O)N(S(C)(=O)=O)[C@H]2CCN(S(=O)(=O)c3ccccc3C(F)(F)F)[C@H]12 (relative stereo) [Example 225, rel-(3R,3aR,6aS)-1-Methanesulfonyl-3-propyl-4-(2-trifluoromethyl-benzenesulfonyl)-hexahydro-pyrrolo[3,2-b]pyrrol-2-one]
118	CC(C)[C@H]1C(=O)N(S(C)(=O)=O)[C@H]2CCN(S(=O)(=O)c3ccc(S(C)(=O)=O)cc3)[C@H]12 (relative stereo) [Example 227, rel-(3R,3aR,6aS)-3-Isopropyl-1-methanesulfonyl-4-(4-methanesulfonyl-benzenesulfonyl)-hexahydro-pyrrolo[3,2-b]pyrrol-2-one]
66	CCC[C@H]1C(=O)N(S(C)(=O)=O)[C@H]2CCN(C(=O)CCCCCCCCCN(CC)CC)[C@H]12 (relative stereo) [Example 65, rel-(3R,3aR,6aS)-4-(10-Diethylamino-decanoyl)-1-methanesulfonyl-3-propyl-hexahydro-pyrrolo[3,2-b]pyrrol-2-one DL-tartrate]
40	CCC[C@H]1C(=O)N(S(C)(=O)=O)[C@H]2CCN(S(=O)(=O)c3ccc(S(C)(=O)=O)cc3)[C@H]12 (relative stereo) [Example 217, rel-(3R,3aR,6aS)-1-Methanesulfonyl-4-(4-methanesulfonyl-benzenesulfonyl)-3-propyl-hexahydro-pyrrolo[3,2-b]pyrrol-2-one]
34	CCC[C@H]1C(=O)N(S(C)(=O)=O)[C@H]2CCN(S(=O)(=O)c3ccc(CN(C)C)cc3)[C@H]12 (relative stereo) [Example 196, rel-(3R,3aR,6aS)-4-(4-Dimethylaminomethyl-benzenesulfonyl)-1-methanesulfonyl-3-propyl-hexahydro-pyrrolo[3,2-b]pyrrol-2-one hydrochloride]
33	CCC[C@H]1C(=O)N(S(C)(=O)=O)[C@H]2CCN(C(=O)c3cccn3C)[C@H]12 (relative stereo) [Example 240, rel-(3R,3aR,6aS)-1-Methanesulfonyl-4-(1-methyl-1H-pyrrole-2-carbonyl)-3-propyl-hexahydro-pyrrolo[3,2-b]pyrrol-2-one]
20	CCC[C@H]1C(=O)N(S(C)(=O)=O)[C@H]2CCN(S(C)(=O)=O)[C@H]12 (relative stereo) [Example 26, rel-(3R,3aR,6aS)-1,4-Bis-methanesulfonyl-3-propyl-hexahydro-pyrrolo[3,2-b]pyrrol-2-one]
